Here are results for 2 molecules from patent US8461186B2, “Use of N-piperidine derivatives for the treatment of neurodegenerative pathologies” (Medestea Research & Production S.p.A., priority 2004, dated 2013).

SMILES strings stand for the structures.

This test concerns lipid peroxidation in the heart tissue. As to the kind of experiment: Malondialdehyde (MDA) in the heart tissue in myocardial ischaemia and reperfusion. In kind it is in vivo, rat. Conditions: I/R rats, 10 mg/kg bolus then 2 mg/kg/h; p<0.01 (FIG. 2). How it is done:
[…]. Enzymol. 52, 302-310, 1978.
The following test groups were considered: a) LAD occlusion (25 minutes) and reperfusion (2 hours) plus administration of the vehicle (saline solution, 3 ml/kg-v-bolus plus 1.8 ml/kg/h) starting 5 minutes after reperfusion and maintained during the reperfusion period; b) LAD occlusion and reperfusion plus administration of MP1002 or MP1001 (10 mg/kg injection in bolus) 5 minutes prior to reperfusion, followed by infusion of 2 mg/kg/h during the reperfusion period; c) sham operation (no LAD occlusion) and infusion of the vehicle; d) sham operation and infusion of MP1002 or MP1001 as described above.
The malondialdehyde (MDA) in the heart tissue as final peroxidation product of the cell membrane lipids was also determined as described above.

For the molecule `CC1(C)CC(OC(=O)CCCCCCCCC(=O)OC2CC(C)(C)N(O)C(C)(C)C2)CC(C)(C)N1O` [MP1001, BIS(1-HYDROXYL-2,2,6,6-TETRAMETHYL-4-PIPERIDINYL)DECANDIOATE], the “development of lipid peroxidation in heart tissue (MDA)” value is “reduced the development of peroxidation to levels similar to those of the animals that were subjected to sham operations”.
Regarding `CC1(C)CC(OC(=O)CCCCCCCCC(=O)OC2CC(C)(C)N(O)C(C)(C)C2)CC(C)(C)N1O` [MP1002, bis(1-oxyl-2,2,6,6-tetramethyl-4-piperidinyl)decandioate], the “development of lipid peroxidation in heart tissue (MDA)” value is recorded as “reduced the development of peroxidation to levels similar to those of the animals that were subjected to sham operations”.
